Legend:
Type in all cases: cell-based
[1] = tested on: Botrytis cinerea; experiment: Botrytis cinerea (Gray Mold) radial growth on potato dextrose agar; settings: 300 ppm; radial growth after seven days compared to untreated control
[2] = tested on: Pyricularia oryzae; experiment: microbe, parasite or virus in culture; settings: 168 h, read-out: control
[3] = tested on: Fusarium culmorum; experiment: Fusarium culmorum (Foot Rot of Cereals) radial growth on potato dextrose agar; settings: 300 ppm; radial growth after seven days compared to untreated control
Method: Example 6: Fusarium culmorum (Foot Rot of Cereals)
Compounds were dissolved in 0.3% dimethyl sulfoxide and then added to potato dextrose agar medium just prior to dispensing it into petri dishes. 5 mL medium with the compound in the desired concentration was dispensed into 60 mm sterile petri-plates. After solidification each plate was seeded with a 5 mm size mycelial disc taken from the periphery of an actively growing virulent culture plate. Plates were incubated in growth chambers at 25° C. temperature and 60% relative humidity for seven days and then the radial growth was measured and compared to that of the untreated control.

[4] = tested on: Alternaria solani; experiment: Alternaria solani (Early Blight of Tomato/Potato) radial growth on potato dextrose agar; settings: 168 h, radial growth after seven days compared to untreated control
[5] = tested on: Colletotrichum capsici; experiment: Colletotrichum capsici (Anthracnose) radial growth on potato dextrose agar; settings: Colletotrichum truncatum, 168 h, radial growth after seven days compared to untreated control

| SMILES | control [1] | inhibition of growth at 300 ppm [2] | control [3] | inhibition of growth at 300 ppm [4] | inhibition of growth at 300 ppm [5] |
| --- | --- | --- | --- | --- | --- |
| O=C(COc1ccccc1F)c1ccc(-c2noc(C(F)(F)F)n2)cn1 [Compound 114, 2-(2-fluorophenoxy)-1-(5-(5-(trifluoromethyl)-1,2,4-oxadiazol-3-yl)pyridin-2-yl)ethan-1-one] | ≥ 70% | ≥ 70% | – | – | – |
| O=C(CNc1ccc(Cl)c(C(F)(F)F)c1)c1ccc(-c2noc(C(F)(F)F)n2)cc1 [Compound 140, 2-((4-chloro-3-(trifluoromethyl)phenyl)amino)-1-(4-(5-(trifluoromethyl)-1,2,4-oxadiazol-3-yl)phenyl)ethan-1-one] | – | – | ≥ 70% | ≥ 70% | – |
| O=C(CSc1ncn[nH]1)c1ccc(-c2noc(C(F)(F)F)n2)cc1 [Compound 149, 2-((1H-1,2,4-triazol-5-yl)thio)-1-(4-(5-(trifluoromethyl)-1,2,4-oxadiazol-3-yl)phenyl)ethan-1-one] | – | ≥ 70% | – | ≥ 70% | ≥ 70% |

— patent US12677832B2, “Oxadiazole compounds for controlling or preventing phytopathogenic fungi” (PI INDUSTRIES LTD., priority 2019, dated 2026)
